One block for each molecule: values may come before it.
What was measured:
[1] = molecular target: Aurora kinase A (Homo sapiens) (UniProt O14965); settings: dose 1000.0 nM
Description: Inhibition of AURORA kinase A (unknown origin) at 1000 nM relative to control

in vivo [2] = settings: Sprague-Dawley, rat, iv, 5 mg/kg
Description: Initial plasma concentration in Sprague-Dawley rat at 5 mg/kg, iv administered as single dose measured up to 8 hrs by LC/MS-MS analysis

[3] = molecular target: Mitogen-activated protein kinase kinase kinase 14 (Homo sapiens) (UniProt Q99558); settings: dose 1000.0 nM
Description: Inhibition of NIK (unknown origin) at 1000 nM relative to control

[4] = molecular target: Serine/threonine-protein kinase PAK 3 (Homo sapiens) (UniProt O75914); settings: dose 1000.0 nM
Description: Inhibition of PAK3 (unknown origin) at 1000 nM relative to control

[5] = molecular target: Focal adhesion kinase 1 (Homo sapiens) (UniProt Q05397); settings: dose 1000.0 nM
Description: Inhibition of FAK (unknown origin) at 1000 nM relative to control

in vivo [6] = settings: Sprague-Dawley, rat, po, 5 mg/kg
[7] = molecular target: Platelet-derived growth factor receptor alpha (Homo sapiens) (UniProt P16234); settings: dose 1000.0 nM
Description: Inhibition of PDGFRA (unknown origin) at 1000 nM relative to control

[8] = molecular target: Macrophage-stimulating protein receptor (Homo sapiens) (UniProt Q04912); settings: dose 1000.0 nM
Description: Inhibition of RON (unknown origin) at 1000 nM relative to control

[9] = molecular target: Serine/threonine-protein kinase TAO1 (Homo sapiens) (UniProt Q7L7X3); settings: dose 1000.0 nM
Description: Inhibition of TAOK1 (unknown origin) at 1000 nM relative to control

[10] = molecular target: Tyrosine-protein kinase BTK (Homo sapiens) (UniProt Q06187); settings: dose 1000.0 nM
Description: Inhibition of BTK (unknown origin) at 1000 nM relative to control

NCI-H1581 [11] = assay: cells; type: functional, cell-based; settings: Homo sapiens, NCI-H1581, 96 h
[12] = molecular target: Dual specificity protein kinase CLK1 (Homo sapiens) (UniProt P49759); settings: dose 1000.0 nM
Description: Inhibition of CLK1 (unknown origin) at 1000 nM relative to control

SNU-16 [13] = assay: animal or person; type: functional; settings: Mus musculus, SNU-16, po, 960 h, time 40 day, read-out: TGI
Description: Antitumor activity against human SNU-16 cells xenografted in BALB/c mouse assessed as tumor growth inhibition at 100 mg/kg, po administered once daily for 40 days relative to control

[14] = molecular target: Tyrosine-protein kinase Lck (Homo sapiens) (UniProt P06239); settings: dose 1000.0 nM
Description: Inhibition of LCK (unknown origin) at 1000 nM relative to control

[15] = molecular target: TGF-beta receptor type-1 (Homo sapiens) (UniProt P36897); settings: dose 1000.0 nM
Description: Inhibition of TGFBR1 (unknown origin) at 1000 nM relative to control

[16] = molecular target: Mitogen-activated protein kinase 14 (Homo sapiens) (UniProt Q16539); settings: dose 1000.0 nM
Description: Inhibition of P38alpha (unknown origin) at 1000 nM relative to control

[17] = molecular target: Maternal embryonic leucine zipper kinase (Homo sapiens) (UniProt Q14680); settings: dose 1000.0 nM
Description: Inhibition of MELK (unknown origin) at 1000 nM relative to control

[18] = molecular target: Calcium/calmodulin-dependent protein kinase type II subunit alpha (Homo sapiens) (UniProt Q9UQM7); settings: dose 1000.0 nM
Sequence of Calcium/calmodulin-dependent protein kinase type II subunit alpha (Homo sapiens) (Q9UQM7 whole entry): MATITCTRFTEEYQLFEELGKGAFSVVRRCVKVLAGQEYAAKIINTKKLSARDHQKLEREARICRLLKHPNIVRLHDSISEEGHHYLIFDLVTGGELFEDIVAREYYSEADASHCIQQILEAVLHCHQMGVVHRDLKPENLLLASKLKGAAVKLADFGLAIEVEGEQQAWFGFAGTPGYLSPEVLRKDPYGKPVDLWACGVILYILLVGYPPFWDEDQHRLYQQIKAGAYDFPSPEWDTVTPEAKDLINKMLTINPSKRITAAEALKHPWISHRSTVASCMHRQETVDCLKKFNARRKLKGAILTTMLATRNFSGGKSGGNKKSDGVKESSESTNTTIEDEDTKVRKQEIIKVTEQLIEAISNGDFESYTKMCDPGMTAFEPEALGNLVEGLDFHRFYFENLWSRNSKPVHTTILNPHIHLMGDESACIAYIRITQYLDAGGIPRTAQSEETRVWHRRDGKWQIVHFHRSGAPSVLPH
Description: Inhibition of CAMK2 alpha (unknown origin) at 1000 nM relative to control

NCI-H1581 [19] = assay: animal or person; type: functional; settings: Mus musculus, NCI-H1581, po, 624 h, time 26 day, read-out: TGI
Description: Antitumor activity against human NCI-H1581 cells xenografted in BALB/c mouse assessed as tumor growth inhibition at 100 mg/kg, po administered once daily for 26 days relative to control

[20] = molecular target: Serine/threonine-protein kinase B-raf (Homo sapiens) (UniProt P15056); settings: dose 1000.0 nM
Description: Inhibition of BRAF (unknown origin) at 1000 nM relative to control

[21] = molecular target: Serine/threonine-protein kinase Chk1 (Homo sapiens) (UniProt O14757); settings: dose 1000.0 nM
Description: Inhibition of CHK1 (unknown origin) at 1000 nM relative to control

[22] = molecular target: Rho-associated protein kinase 1 (Homo sapiens) (UniProt Q13464); settings: dose 1000.0 nM
Description: Inhibition of ROCK1 (unknown origin) at 1000 nM relative to control

in vivo [23] = settings: Sprague-Dawley, rat, po, 5 mg/kg; remark: listed apart in the source
Description: MRT in Sprague-Dawley rat at 5 mg/kg, po administered as single dose measured up to 8 hrs by LC/MS-MS analysis

in vivo [24] = settings: Sprague-Dawley, rat, iv, 5 mg/kg; remark: listed apart in the source
SNU-16 [25] = assay: cells; type: functional, cell-based; settings: Homo sapiens, SNU-16, 96 h
[26] = molecular target: Interferon-induced, double-stranded RNA-activated protein kinase (Homo sapiens) (UniProt P19525); settings: dose 1000.0 nM
Description: Inhibition of EIF2AK2 (unknown origin) at 1000 nM relative to control

[27] = molecular target: Mitogen-activated protein kinase kinase kinase 5 (Homo sapiens) (UniProt Q99683); settings: dose 1000.0 nM
Description: Inhibition of ASK1 (unknown origin) at 1000 nM relative to control

[28] = molecular target: Vascular endothelial growth factor receptor 2 (Homo sapiens) (UniProt P35968); settings: dose 1000.0 nM
Description: Inhibition of VEGFR2(unknown origin) at 1000 nM relative to control

[29] = molecular target: Proto-oncogene tyrosine-protein kinase Src (Homo sapiens) (UniProt P12931); settings: dose 1000.0 nM
Description: Inhibition of SRC (unknown origin) at 1000 nM relative to control

[30] = molecular target: Proto-oncogene tyrosine-protein kinase receptor Ret (Homo sapiens) (UniProt P07949); settings: dose 1000.0 nM
Sequence of Proto-oncogene tyrosine-protein kinase receptor Ret (Homo sapiens) (P07949 whole entry): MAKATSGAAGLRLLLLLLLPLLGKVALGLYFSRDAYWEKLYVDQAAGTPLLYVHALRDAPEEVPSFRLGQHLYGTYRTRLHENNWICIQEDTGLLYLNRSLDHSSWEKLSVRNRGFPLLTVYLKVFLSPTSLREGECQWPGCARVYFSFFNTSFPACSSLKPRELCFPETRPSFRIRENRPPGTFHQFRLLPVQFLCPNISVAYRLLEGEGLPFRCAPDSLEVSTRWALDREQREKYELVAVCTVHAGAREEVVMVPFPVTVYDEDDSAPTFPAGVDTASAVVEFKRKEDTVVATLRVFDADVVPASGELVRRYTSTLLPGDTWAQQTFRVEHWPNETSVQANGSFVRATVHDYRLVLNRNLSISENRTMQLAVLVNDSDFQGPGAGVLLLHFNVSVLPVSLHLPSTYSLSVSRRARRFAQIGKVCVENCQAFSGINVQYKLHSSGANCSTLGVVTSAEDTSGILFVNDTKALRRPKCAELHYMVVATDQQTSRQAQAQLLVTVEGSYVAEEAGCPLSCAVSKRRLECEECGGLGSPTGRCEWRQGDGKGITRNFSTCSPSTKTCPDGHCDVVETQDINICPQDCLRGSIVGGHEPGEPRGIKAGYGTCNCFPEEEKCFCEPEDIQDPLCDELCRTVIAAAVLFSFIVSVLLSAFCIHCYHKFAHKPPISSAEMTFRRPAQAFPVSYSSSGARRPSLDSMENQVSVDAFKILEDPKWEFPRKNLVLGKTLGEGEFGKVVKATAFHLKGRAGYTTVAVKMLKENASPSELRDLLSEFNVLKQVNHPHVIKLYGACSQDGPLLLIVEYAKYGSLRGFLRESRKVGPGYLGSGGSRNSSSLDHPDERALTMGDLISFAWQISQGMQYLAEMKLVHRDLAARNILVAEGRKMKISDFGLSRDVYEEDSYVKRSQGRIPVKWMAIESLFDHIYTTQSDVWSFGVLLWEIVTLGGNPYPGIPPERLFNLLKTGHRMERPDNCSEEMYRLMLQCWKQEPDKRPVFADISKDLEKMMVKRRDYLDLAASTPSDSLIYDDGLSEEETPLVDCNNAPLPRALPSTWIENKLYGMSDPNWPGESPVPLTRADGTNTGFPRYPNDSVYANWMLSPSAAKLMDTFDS
Description: Inhibition of RET (unknown origin) at 1000 nM relative to control

[31] = molecular target: Tyrosine-protein kinase receptor UFO (Homo sapiens) (UniProt P30530); settings: dose 1000.0 nM
Description: Inhibition of AXL (unknown origin) at 1000 nM relative to control

[32] = molecular target: Tyrosine-protein kinase Mer (Homo sapiens) (UniProt Q12866); settings: dose 1000.0 nM
Description: Inhibition of c-MER (unknown origin) at 1000 nM relative to control

[33] = molecular target: Mitogen-activated protein kinase 8 (Homo sapiens) (UniProt P45983); settings: dose 1000.0 nM
Description: Inhibition of JNK1 (unknown origin) at 1000 nM relative to control

[34] = molecular target: Tyrosine-protein kinase ABL1 (Homo sapiens) (UniProt P00519); settings: dose 1000.0 nM
Description: Inhibition of ABL1 (unknown origin) at 1000 nM relative to control

in vivo [35] = settings: Sprague-Dawley, rat, po, 5 mg/kg; remark: listed apart in the source
[36] = molecular target: RAC-gamma serine/threonine-protein kinase (Homo sapiens) (UniProt Q9Y243); settings: dose 1000.0 nM
Sequence of RAC-gamma serine/threonine-protein kinase (Homo sapiens) (Q9Y243 whole entry): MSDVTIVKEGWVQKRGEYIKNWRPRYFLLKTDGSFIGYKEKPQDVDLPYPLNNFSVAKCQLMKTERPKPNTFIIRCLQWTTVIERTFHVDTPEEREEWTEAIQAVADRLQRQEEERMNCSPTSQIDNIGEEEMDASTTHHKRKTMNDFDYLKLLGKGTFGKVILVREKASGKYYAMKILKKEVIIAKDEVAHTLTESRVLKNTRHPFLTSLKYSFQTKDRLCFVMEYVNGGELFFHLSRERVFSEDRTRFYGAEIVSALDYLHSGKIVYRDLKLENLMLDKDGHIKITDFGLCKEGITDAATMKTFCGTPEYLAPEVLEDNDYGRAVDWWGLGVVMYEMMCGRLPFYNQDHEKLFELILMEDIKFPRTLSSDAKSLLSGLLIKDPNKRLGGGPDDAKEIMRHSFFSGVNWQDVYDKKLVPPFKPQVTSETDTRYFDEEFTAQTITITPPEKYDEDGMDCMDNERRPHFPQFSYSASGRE
Description: Inhibition of AKT3 (unknown origin) at 1000 nM relative to control

[37] = molecular target: Tyrosine-protein kinase ITK/TSK (Homo sapiens) (UniProt Q08881); settings: dose 1000.0 nM
Description: Inhibition of ITK (unknown origin) at 1000 nM relative to control

in vivo [38] = settings: Sprague-Dawley, rat, po, 5 mg/kg; remark: listed apart in the source
Description: Half life in Sprague-Dawley rat plasma at 5 mg/kg, po administered as single dose measured up to 8 hrs by LC/MS-MS analysis

in vivo [39] = settings: Sprague-Dawley, rat, iv, 5 mg/kg; remark: listed apart in the source
Description: MRT in Sprague-Dawley rat at 5 mg/kg, iv administered as single dose measured up to 8 hrs by LC/MS-MS analysis

in vivo [40] = settings: Sprague-Dawley, rat, po, 5 mg/kg; remark: listed apart in the source
Description: Clearance in Sprague-Dawley rat at 5 mg/kg, po administered as single dose measured up to 8 hrs by LC/MS-MS analysis

[41] = molecular target: Tyrosine-protein kinase CSK (Homo sapiens) (UniProt P41240); settings: dose 1000.0 nM
Description: Inhibition of CSK (unknown origin) at 1000 nM relative to control

[42] = molecular target: Epidermal growth factor receptor (Homo sapiens) (UniProt P00533); settings: dose 1000.0 nM
Sequence of Epidermal growth factor receptor (Homo sapiens) (P00533 whole entry): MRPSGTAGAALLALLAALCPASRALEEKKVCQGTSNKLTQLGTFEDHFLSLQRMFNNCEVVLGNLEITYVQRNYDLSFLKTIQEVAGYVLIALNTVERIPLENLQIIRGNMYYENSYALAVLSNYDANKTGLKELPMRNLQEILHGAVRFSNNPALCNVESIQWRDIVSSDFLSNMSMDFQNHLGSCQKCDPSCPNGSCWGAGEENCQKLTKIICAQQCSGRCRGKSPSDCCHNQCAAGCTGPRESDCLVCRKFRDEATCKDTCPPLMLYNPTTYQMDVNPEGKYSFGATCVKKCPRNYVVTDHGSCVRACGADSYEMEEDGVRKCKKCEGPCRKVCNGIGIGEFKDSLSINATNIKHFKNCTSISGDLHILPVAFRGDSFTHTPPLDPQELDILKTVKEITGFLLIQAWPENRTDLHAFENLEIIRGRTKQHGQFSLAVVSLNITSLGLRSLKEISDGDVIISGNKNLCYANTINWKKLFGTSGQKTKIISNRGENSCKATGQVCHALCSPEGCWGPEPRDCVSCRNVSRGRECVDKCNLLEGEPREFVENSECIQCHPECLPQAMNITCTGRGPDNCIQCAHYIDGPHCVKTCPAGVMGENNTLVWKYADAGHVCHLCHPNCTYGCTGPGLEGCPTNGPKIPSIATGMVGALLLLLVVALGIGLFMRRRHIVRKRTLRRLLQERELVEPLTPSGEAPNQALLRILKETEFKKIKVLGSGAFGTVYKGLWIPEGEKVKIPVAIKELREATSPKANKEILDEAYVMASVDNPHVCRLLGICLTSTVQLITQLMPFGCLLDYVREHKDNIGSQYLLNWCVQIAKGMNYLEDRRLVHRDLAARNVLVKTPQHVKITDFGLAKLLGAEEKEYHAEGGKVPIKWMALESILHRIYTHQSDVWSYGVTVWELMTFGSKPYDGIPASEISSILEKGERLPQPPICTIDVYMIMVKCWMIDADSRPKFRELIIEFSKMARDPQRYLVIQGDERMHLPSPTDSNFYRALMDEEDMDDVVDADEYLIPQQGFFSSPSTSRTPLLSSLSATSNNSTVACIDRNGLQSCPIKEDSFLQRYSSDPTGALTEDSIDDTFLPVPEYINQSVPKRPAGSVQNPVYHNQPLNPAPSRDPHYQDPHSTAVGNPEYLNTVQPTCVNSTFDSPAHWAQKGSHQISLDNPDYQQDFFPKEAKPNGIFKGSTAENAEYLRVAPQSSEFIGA
Description: Inhibition of EGFR (unknown origin) at 1000 nM relative to control

SNU-16 [43] = assay: animal or person; type: functional; settings: Mus musculus, SNU-16, po, 960 h, time 40 day, read-out: TGI; remark: listed apart in the source
Description: Antitumor activity against human SNU-16 cells xenografted in BALB/c mouse assessed as tumor growth inhibition at 50 mg/kg, po administered once daily for 40 days relative to control

[44] = molecular target: Receptor-type tyrosine-protein kinase FLT3 (Homo sapiens) (UniProt P36888); settings: dose 1000.0 nM
Description: Inhibition of FLT3 (unknown origin) at 1000 nM relative to control

[45] = molecular target: Serine/threonine-protein kinase pim-1 (Homo sapiens) (UniProt P11309); settings: dose 1000.0 nM
Description: Inhibition of PIM1 (unknown origin) at 1000 nM relative to control

NCI-H1581 [46] = assay: animal or person; type: functional; settings: Mus musculus, NCI-H1581, po, 624 h, time 26 day, read-out: TGI; remark: listed apart in the source
Description: Antitumor activity against human NCI-H1581 cells xenografted in BALB/c mouse assessed as tumor growth inhibition at 50 mg/kg, po administered once daily for 26 days relative to control

[47] = molecular target: Casein kinase II subunit alpha (Homo sapiens) (UniProt P68400); settings: dose 1000.0 nM
Sequence of Casein kinase II subunit alpha (Homo sapiens) (P68400 whole entry, looked up): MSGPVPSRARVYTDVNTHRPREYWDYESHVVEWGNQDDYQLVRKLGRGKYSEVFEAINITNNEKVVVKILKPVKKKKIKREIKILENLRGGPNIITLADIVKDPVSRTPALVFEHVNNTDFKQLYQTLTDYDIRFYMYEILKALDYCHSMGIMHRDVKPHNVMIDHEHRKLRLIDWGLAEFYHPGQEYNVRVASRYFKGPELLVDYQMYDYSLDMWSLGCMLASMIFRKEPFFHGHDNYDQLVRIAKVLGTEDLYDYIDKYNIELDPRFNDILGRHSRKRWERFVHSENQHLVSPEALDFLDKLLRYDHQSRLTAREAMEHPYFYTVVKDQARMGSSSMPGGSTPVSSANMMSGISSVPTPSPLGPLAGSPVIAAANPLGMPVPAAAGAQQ
Description: Inhibition of CK2alpha1 (unknown origin) at 1000 nM relative to control

[48] = molecular target: ALK tyrosine kinase receptor (Homo sapiens) (UniProt Q9UM73); settings: dose 1000.0 nM
Description: Inhibition of ALK (unknown origin) at 1000 nM relative to control

[49] = molecular target: Mitogen-activated protein kinase 1 (Homo sapiens) (UniProt P28482); settings: dose 1000.0 nM
Description: Inhibition of MAPK1 (unknown origin) at 1000 nM relative to control

[50] = molecular target: Glycogen synthase kinase-3 alpha (Homo sapiens) (UniProt P49840); settings: dose 1000.0 nM
Description: Inhibition of GSK3alpha (unknown origin) at 1000 nM relative to control

[51] = molecular target: Voltage-gated inwardly rectifying potassium channel KCNH2 (Homo sapiens, UniProt Q12809)
Description: Binding affinity to human ERG

[52] = molecular target: Discoidin domain-containing receptor 2 (Homo sapiens) (UniProt Q16832); settings: dose 1000.0 nM
Description: Inhibition of DDR2 (unknown origin) at 1000 nM relative to control

[53] = molecular target: Serine/threonine-protein kinase TBK1 (Homo sapiens) (UniProt Q9UHD2); settings: dose 1000.0 nM
Sequence of Serine/threonine-protein kinase TBK1 (Homo sapiens) (Q9UHD2 whole entry): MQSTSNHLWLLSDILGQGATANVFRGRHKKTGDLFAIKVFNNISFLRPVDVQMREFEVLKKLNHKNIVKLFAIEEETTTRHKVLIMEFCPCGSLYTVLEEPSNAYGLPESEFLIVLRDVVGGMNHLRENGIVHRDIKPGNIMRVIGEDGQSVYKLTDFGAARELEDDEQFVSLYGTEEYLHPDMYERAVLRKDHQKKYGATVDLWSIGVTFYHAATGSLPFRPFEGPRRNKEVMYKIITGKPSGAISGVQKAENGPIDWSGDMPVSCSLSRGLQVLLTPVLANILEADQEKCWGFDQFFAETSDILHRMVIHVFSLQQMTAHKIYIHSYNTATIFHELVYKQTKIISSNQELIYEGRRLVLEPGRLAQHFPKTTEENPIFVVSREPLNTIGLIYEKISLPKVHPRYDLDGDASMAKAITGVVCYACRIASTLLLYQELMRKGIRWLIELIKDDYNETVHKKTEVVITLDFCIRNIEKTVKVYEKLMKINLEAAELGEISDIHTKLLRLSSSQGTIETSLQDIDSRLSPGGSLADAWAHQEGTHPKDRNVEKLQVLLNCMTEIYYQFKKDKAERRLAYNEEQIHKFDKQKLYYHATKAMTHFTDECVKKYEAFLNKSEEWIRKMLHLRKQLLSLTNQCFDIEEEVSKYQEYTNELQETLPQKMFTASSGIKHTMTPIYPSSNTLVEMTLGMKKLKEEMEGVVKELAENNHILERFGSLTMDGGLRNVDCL
Description: Inhibition of TBK1 (unknown origin) at 1000 nM relative to control

[54] = molecular target: Hepatocyte growth factor receptor (Homo sapiens) (UniProt P08581); settings: dose 1000.0 nM
Description: Inhibition of MET (unknown origin) at 1000 nM relative to control

[55] = molecular target: Serine/threonine-protein kinase Nek3 (Homo sapiens) (UniProt P51956); settings: dose 1000.0 nM
Description: Inhibition of NEK3 (unknown origin) at 1000 nM relative to control

Homo sapiens [56] = species on record: Homo sapiens; settings: dose 1000.0 nM
Description: Inhibition of FYNA (unknown origin) at 1000 nM relative to control

in vivo [57] = settings: Sprague-Dawley, rat, iv, 5 mg/kg; remark: listed apart in the source
[58] = molecular target: Cyclin-dependent kinase 4 (Homo sapiens) (UniProt P11802); settings: dose 1000.0 nM
Description: Inhibition of CDK4 (unknown origin) at 1000 nM relative to control

Homo sapiens [59] = species on record: Homo sapiens; settings: dose 1000.0 nM; remark: listed apart in the source
Description: Inhibition of PKA (unknown origin) at 1000 nM relative to control

[60] = molecular target: Glycogen synthase kinase-3 beta (Homo sapiens) (UniProt P49841); settings: dose 1000.0 nM
Description: Inhibition of GSK3beta (unknown origin) at 1000 nM relative to control

[61] = molecular target: Serine/threonine-protein kinase Nek2 (Homo sapiens) (UniProt P51955); settings: dose 1000.0 nM
Sequence of Serine/threonine-protein kinase Nek2 (Homo sapiens) (P51955 whole entry): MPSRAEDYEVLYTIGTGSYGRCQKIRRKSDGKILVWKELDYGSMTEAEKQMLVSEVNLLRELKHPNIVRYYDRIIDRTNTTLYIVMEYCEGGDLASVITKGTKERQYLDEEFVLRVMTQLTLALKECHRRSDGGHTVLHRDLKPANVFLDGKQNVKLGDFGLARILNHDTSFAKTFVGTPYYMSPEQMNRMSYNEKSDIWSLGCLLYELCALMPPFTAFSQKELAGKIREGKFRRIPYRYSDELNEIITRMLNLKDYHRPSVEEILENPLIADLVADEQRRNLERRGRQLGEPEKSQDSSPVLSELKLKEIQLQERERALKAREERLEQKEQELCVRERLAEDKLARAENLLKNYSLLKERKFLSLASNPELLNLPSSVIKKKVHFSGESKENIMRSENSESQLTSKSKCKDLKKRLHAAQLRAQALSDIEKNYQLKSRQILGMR
Description: Inhibition of NEK2 (unknown origin) at 1000 nM relative to control

[62] = molecular target: Tyrosine-protein kinase JAK3 (Homo sapiens) (UniProt P52333); settings: dose 1000.0 nM
Description: Inhibition of JAK3 (unknown origin) at 1000 nM relative to control

[63] = molecular target: Receptor tyrosine-protein kinase erbB-2 (Homo sapiens) (UniProt P04626); settings: dose 1000.0 nM
Description: Inhibition of HER2 (unknown origin) at 1000 nM relative to control

NCI-H460 = assay: cells; type: functional, cell-based; settings: Homo sapiens, NCI-H460, 96 h
[64] = molecular target: Interleukin-1 receptor-associated kinase 4 (Homo sapiens) (UniProt Q9NWZ3); settings: dose 1000.0 nM
Description: Inhibition of IRAK4 (unknown origin) at 1000 nM relative to control

SK-HEP1 = assay: cells; type: functional, cell-based; settings: Homo sapiens, SK-HEP1, 96 h
Huh-7 = assay: cells; type: functional, cell-based; settings: Homo sapiens, Huh-7, 96 h

inhibition [1]: 1% | C0 at 8 h (in vivo [2]): 0.519 ng/mL | inhibition [3]: 0% | inhibition [4]: 9% | inhibition [5]: 17% | Tmax at 8 h (in vivo [6]): 8.34 min | inhibition [7]: 42% | inhibition [8]: 4% | inhibition [9]: 0% | inhibition [10]: 0% | IC50 (NCI-H1581 [11]): 0.016 µM | inhibition [12]: 0% | inhibition [14]: 23% | inhibition [15]: 8% | inhibition [16]: 3% | inhibition [17]: 0% | inhibition [18]: 0% | inhibition [20]: 2% | inhibition [21]: 2% | inhibition [22]: 12% | MRT at 8 h (in vivo [23]): 19.1 min | AUC at 8 h (in vivo [24]): 0.309 ng·h/mL | IC50 (SNU-16 [25]): 0.006 µM | inhibition [26]: 27% | inhibition [27]: 0% | inhibition [28]: 7% | inhibition [29]: 83% | inhibition [30]: 24% | inhibition [31]: 0% | inhibition [32]: 9% | inhibition [33]: 2% | inhibition [34]: 14% | bioavailability at 8 h (in vivo [35]): 24.9% | inhibition [36]: 6% | inhibition [37]: 35% | half-life at 8 h (in vivo [38]): 16.8 min | MRT at 8 h (in vivo [39]): 60.5 min | CL/F at 8 h (in vivo [40]): 280000 mL/min | inhibition [41]: 0% | inhibition [42]: 2% | inhibition [44]: 1% | inhibition [45]: 0% | inhibition [47]: 0% | inhibition [48]: 0% | inhibition [49]: 4% | inhibition [50]: 0% | inhibition [52]: 21% | inhibition [53]: 1% | inhibition [54]: 1% | inhibition [55]: 1% | inhibition (Homo sapiens [56]): 0% | Tmax at 8 h (in vivo [57]): 4.98 min | inhibition [58]: 3% | inhibition (Homo sapiens [59]): 0% | inhibition [60]: 0% | inhibition [61]: 0% | inhibition [62]: 11% | inhibition [63]: 3% | IC50 (NCI-H460): > 10 µM | inhibition [64]: 0%
Compound: COc1cc(OC)cc(-c2nn(CCCCCN3CCN(C(=O)/C=C/C(F)(F)F)CC3)c3ncnc(N)c23)c1
inhibition in vivo at 100 mg/kg (SNU-16 [13]): 89.4% | inhibition in vivo at 100 mg/kg (NCI-H1581 [19]): 88.6% | inhibition in vivo at 50 mg/kg (SNU-16 [43]): 67.9% | inhibition in vivo at 50 mg/kg (NCI-H1581 [46]): 69.5% | IC50 [51]: 3.21 µM

IC50 (NCI-H1581 [11]): 0.024 µM | IC50 (SNU-16 [25]): 0.006 µM | IC50 (SK-HEP1): 2.78 µM | IC50 (Huh-7): > 10 µM | IC50 (NCI-H460): > 10 µM
Compound: COc1cc(CCc2cc(NC(=O)c3ccc(N4C[C@@H](C)N[C@@H](C)C4)cc3)n[nH]2)cc(OC)c1 [FEXAGRATINIB]

Source: ChEMBL document CHEMBL5032504, “Discovery and Optimization of a Novel 2H-Pyrazolo[3,4-d]pyrimidine Derivative as a Potent Irreversible Pan-Fibroblast Growth Factor Receptor Inhibitor” (J Med Chem, 2021)
